Measurements reported in ChEMBL document CHEMBL4190316, “Synthesis and biological evaluation of 4-biphenylamino-5-halo-2(5H)-furanones as potential anticancer agents” (Eur J Med Chem, 2017).
Activity calls are given as the source filed them. The calls are words filed in the database; no cut-off is given here.

What was measured:
MCF7 [1] = experiment: Induction of apoptosis in human MCF7 cells assessed as necrotic cells at 10 uM after 24 hrs by Annexin-V/PI staining based flow cytometry (reference value: 4.03%); type: functional
MCF7 [2] = experiment: Induction of apoptosis in human MCF7 cells assessed as late apoptotic cells at 20 uM after 72 hrs by Annexin-V/PI staining based flow cytometry (reference value: 0.60%); type: functional
HepG2 = experiment: Cytotoxicity against human HepG2 cells assessed as reduction in cell viability after 72 hrs by MTT assay; type: functional, cell-based; settings: HepG2, 72 h
MCF7 [3] = experiment: Cell cycle arrest in human MCF7 cells assessed as accumulation at G2/M phase after 72 hrs by propidium iodide staining based flow cytometry; type: functional
MCF7 [4] = experiment: Cell cycle arrest in human MCF7 cells assessed as accumulation at S phase at 20 uM after 72 hrs by propidium iodide staining based flow cytometry (reference value: 15.59%); type: functional
MCF7 [5] = experiment: Cell cycle arrest in human MCF7 cells assessed as accumulation at G2/M phase at 20 uM after 24 hrs by propidium iodide staining based flow cytometry (reference value: 6.91%); type: functional
MCF7 [6] = experiment: Cell cycle arrest in human MCF7 cells assessed as accumulation at G1 phase at 40 uM after 24 hrs by propidium iodide staining based flow cytometry (reference value: 69.92%); type: functional
MCF7 [7] = experiment: Induction of apoptosis in human MCF7 cells assessed as early apoptotic cells at 10 uM after 24 hrs by Annexin-V/PI staining based flow cytometry (reference value: 0.13%); type: functional
Quadruplex DNA [8] = experiment: Binding affinity to c-Myc G-quadruplex DNA (unknown origin) at 20 uM incubated for 3 mins by electronic absorption spectra method; type: nucleic-acid assay
MCF7 [9] = experiment: Cell cycle arrest in human MCF7 cells assessed as accumulation at S phase at 10 uM after 72 hrs by propidium iodide staining based flow cytometry (reference value: 15.59%); type: functional
MCF7 [10] = experiment: Induction of apoptosis in human MCF7 cells assessed as early apoptotic cells at 10 uM after 72 hrs by Annexin-V/PI staining based flow cytometry (reference value: 0.28%); type: functional
[11] = Cytotoxicity against human NCI-EC1 cells assessed as reduction in cell viability after 72 hrs by MTT assay; type: functional, cell-based
MCF7 [12] = experiment: Induction of apoptosis in human MCF7 cells assessed as late apoptotic cells at 40 uM after 72 hrs by Annexin-V/PI staining based flow cytometry (reference value: 0.60%); type: functional
MCF7 [13] = experiment: Induction of apoptosis in human MCF7 cells assessed as late apoptotic cells at 40 uM after 24 hrs by Annexin-V/PI staining based flow cytometry (reference value: 0.96%); type: functional
CNE = experiment: Cytotoxicity against human CNE1 cells assessed as reduction in cell viability after 72 hrs by MTT assay; type: functional, cell-based
MCF7 [14] = experiment: Induction of apoptosis in human MCF7 cells assessed as live cells at 10 uM after 24 hrs by Annexin-V/PI staining based flow cytometry (reference value: 94.88%); type: functional
MCF7 [15] = experiment: Induction of apoptosis in human MCF7 cells assessed as early apoptotic cells at 20 uM after 72 hrs by Annexin-V/PI staining based flow cytometry (reference value: 0.28%); type: functional
[16] = Octanol-water partition coefficient, log P of the compound at 10 mM after 24 hrs by UV-vis spectroscopic method; type: physicochemical
MCF7 [17] = experiment: Induction of apoptosis in human MCF7 cells assessed as late apoptotic cells at 10 uM after 72 hrs by Annexin-V/PI staining based flow cytometry (reference value: 0.60%); type: functional
MCF7 [18] = experiment: Cell cycle arrest in human MCF7 cells assessed as accumulation at S phase at 40 uM after 72 hrs by propidium iodide staining based flow cytometry (reference value: 15.59%); type: functional
MCF7 [19] = experiment: Cell cycle arrest in human MCF7 cells assessed as accumulation at G1 phase at 10 uM after 72 hrs by propidium iodide staining based flow cytometry (reference value: 66.42%); type: functional
MCF7 [20] = experiment: Cell cycle arrest in human MCF7 cells assessed as accumulation at sub-G1 phase at 10 to 40 uM after 24 to 72 hrs by propidium iodide staining based flow cytometry; type: functional
MCF7 [21] = experiment: Induction of apoptosis in human MCF7 cells assessed as late apoptotic cells at 20 uM after 24 hrs by Annexin-V/PI staining based flow cytometry (reference value: 0.96%); type: functional
MCF7 [22] = experiment: Induction of apoptosis in human MCF7 cells assessed as live cells at 40 uM after 24 hrs by Annexin-V/PI staining based flow cytometry (reference value: 94.88%); type: functional
MCF7 [23] = experiment: Induction of apoptosis in human MCF7 cells assessed as necrotic cells at 20 uM after 72 hrs by Annexin-V/PI staining based flow cytometry (reference value: 1.36%); type: functional
MCF7 [24] = experiment: Cytotoxicity against human MCF7 cells assessed as reduction in cell viability after 72 hrs by MTT assay; type: functional, cell-based; settings: MCF7, 72 h
MCF7 [25] = experiment: Induction of apoptosis in human MCF7 cells assessed as live cells at 20 uM after 24 hrs by Annexin-V/PI staining based flow cytometry (reference value: 94.88%); type: functional
MCF7 [26] = experiment: Induction of apoptosis in human MCF7 cells assessed as necrotic cells at 40 uM after 72 hrs by Annexin-V/PI staining based flow cytometry (reference value: 1.36%); type: functional
MDA-MB-231 = experiment: Cytotoxicity against human MDA-MB-231 cells assessed as reduction in cell viability after 72 hrs by MTT assay; type: functional, cell-based; settings: MDA-MB-231, 72 h
MCF7 [27] = experiment: Cell cycle arrest in human MCF7 cells assessed as accumulation at G1 phase at 20 uM after 24 hrs by propidium iodide staining based flow cytometry (reference value: 69.92%); type: functional
HaCaT = experiment: Cytotoxicity against human HaCaT cells assessed as reduction in cell viability after 72 hrs by MTT assay; type: cell-based
MCF7 [28] = experiment: Cell cycle arrest in human MCF7 cells assessed as accumulation at S phase at 20 uM after 24 hrs by propidium iodide staining based flow cytometry (reference value: 23.16%); type: functional
MCF7 [29] = experiment: Cell cycle arrest in human MCF7 cells assessed as accumulation at G2/M phase at 20 uM after 72 hrs by propidium iodide staining based flow cytometry (reference value: 17.99%); type: functional
MCF7 [30] = experiment: Induction of apoptosis in human MCF7 cells assessed as necrotic cells at 40 uM after 24 hrs by Annexin-V/PI staining based flow cytometry (reference value: 4.03%); type: functional
Quadruplex DNA [31] = experiment: Stabilization of c-Myc G-quadruplex DNA in human MCF7 cells assessed as downregulation of c-Myc protein expression after 72 hrs by Western blot method; type: cell-based
MCF7 [32] = experiment: Cell cycle arrest in human MCF7 cells assessed as accumulation at G2/M phase at 10 uM after 24 hrs by propidium iodide staining based flow cytometry (reference value: 6.91%); type: functional
MCF7 [33] = experiment: Induction of apoptosis in human MCF7 cells assessed as live cells at 20 uM after 72 hrs by Annexin-V/PI staining based flow cytometry (reference value: 97.7%); type: functional
MCF7 [34] = experiment: Cell cycle arrest in human MCF7 cells assessed as accumulation at G2/M phase at 10 uM after 72 hrs by propidium iodide staining based flow cytometry (reference value: 17.99%); type: functional

With `CC(=O)OC1OC(=O)C(Br)=C1Nc1ccc(-c2ccc(N)cc2)cc1` (stereo not drawn) the Activity (MCF7 [1]) was 2.82%, the Activity (MCF7 [2]) was 0.67% and the IC50 (HepG2) was 35.3 µM. The Activity (MCF7 [3]) was “Dose-dependent effect”, the Activity (MCF7 [4]) was 15.18% and the Activity (MCF7 [5]) was 10.59%. For the same molecule, the Activity (MCF7 [6]) was 55.63%, the Activity (MCF7 [7]) was 0.16% and the K (Quadruplex DNA [8]) was 1.6 ×10⁷ /M. It also gave an Activity (MCF7 [9]) of 15.56%, an Activity (MCF7 [10]) of 0.32% and an IC50 [11] of 55.1 µM. The Activity (MCF7 [12]) was 1.19%, the Activity (MCF7 [13]) was 0.5% and the IC50 (CNE) was 49.4 µM. For the same molecule, the Activity (MCF7 [14]) was 96.89%, the Activity (MCF7 [15]) was 0.55% and the logP at 24 h, 10000 µM [16] was 1.76. It also gave an Activity (MCF7 [17]) of 0.67%, an Activity (MCF7 [18]) of 20.5% and an Activity (MCF7 [19]) of 63.91%. For the same molecule, the Activity (MCF7 [20]) was “inactive”, the Activity (MCF7 [21]) was 0.07% and the Activity (MCF7 [22]) was 95.28%. It also gave an Activity (MCF7 [23]) of 2.59%, an IC50 (MCF7 [24]) of 11.8 µM and an Activity (MCF7 [25]) of 95.21%. The Activity (MCF7 [26]) was 4.94%, the IC50 (MDA-MB-231) was 33.7 µM and the Activity (MCF7 [27]) was 68.3%. For the same molecule, the IC50 (HaCaT) was greater than 100 µM, the Activity (MCF7 [28]) was 21.11% and the Activity (MCF7 [29]) was 23.44%. For the same molecule, the Activity (MCF7 [30]) was 0.14%, the Activity (Quadruplex DNA [31]) was “Dose-dependent effect” and the Activity (MCF7 [32]) was 9.61%. It also gave an Activity (MCF7 [33]) of 96.19% and an Activity (MCF7 [34]) of 20.53%.
